This is an account of results in US20030187023A1, “Sulfone derivatives, process for their production and use thereof” (priority 2000, published 2003).

pIC50: −log10 of the molar value.

human FXa, sequence (P00742 235-488 limits assumed): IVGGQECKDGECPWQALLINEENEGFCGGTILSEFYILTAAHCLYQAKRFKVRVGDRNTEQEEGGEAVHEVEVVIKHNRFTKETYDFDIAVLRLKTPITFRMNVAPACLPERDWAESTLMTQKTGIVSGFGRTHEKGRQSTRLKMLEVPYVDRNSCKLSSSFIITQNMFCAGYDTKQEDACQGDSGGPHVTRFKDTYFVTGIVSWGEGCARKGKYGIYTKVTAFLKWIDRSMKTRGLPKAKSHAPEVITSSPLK
human FXa, sequence (P00742 41-179 partner limits assumed): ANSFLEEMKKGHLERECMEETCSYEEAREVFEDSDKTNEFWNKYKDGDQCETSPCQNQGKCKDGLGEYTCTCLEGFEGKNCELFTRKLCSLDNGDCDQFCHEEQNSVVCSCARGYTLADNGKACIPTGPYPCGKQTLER

For this assay, the target named is human FXa (Homo sapiens, UniProt P00742). Kind of assay: Human activated coagulation factor X (FXa) inhibiting effect. Type of assay: biochemical. The following applies: human FXa (0.3 unit/ml), substrate S-2765, 37° C., tris buffer pH 8.3, absorbance at 405 nm. On the procedure:
(1) Human Activated Coagulation Factor X (FXa) Inhibiting Effect
Method: A cuvette was charged with 225 μl of 0.05 M tris buffer (pH 8.3) containing 0.145 M sodium chloride and 2 mM calcium chloride, 5 μl of a sample (test compound dissolved in dimethyl sulfoxide) and 10 μl of human FXa (0.3 unit/ml), which were reacted at 37° C. for 10 minutes and then combined with 10 μl of a substrate (3 mM, S-2765) and further reacted at 37° C. for 10 minutes. Then the reaction was terminated by adding 25 μl of 50% aqueous acetic acid, and the change in the absorbance at 405 nm was determined using a spectrophotometer to calculate the concentration at which the FXa effect was inhibited by 50% (IC50).
For the compound “4-(6-Bromo-2-naphthyl)sulfonyl-N-methyl-N-[1-(2-methyl-4-pyridyl)-4-piperidyl]propanamide [Example 64]”, the pIC50 is 7.44.
“4-(6-Chloro-2-naphthyl)sulfonyl-N-methyl-N-[1-(2-methyl-4-pyridyl)-4-piperidinyl]propanamide [Example 42]” showed a pIC50 of 7.21.
As for “4-(6-Chloro-2-naphthyl)sulfonyl-N-methyl-N-[1-(4-pyridyl)-4-piperidyl]propanamide [Example 31]”, the pIC50 is 7.30.
In turn, `CN(CCCS(=O)(=O)c1ccc2cc(Cl)ccc2c1)C(=O)C1CCN(c2ccncc2)CC1` [Example 5, N-[3-(6-Chloro-2-naphthyl)sulfonylpropyl]-N-methyl-1-(4-pyridyl)-4-piperidinecarboxamide] showed a pIC50 of 7.02.
Consider `COC(=O)CN(CCCS(=O)(=O)c1ccc2cc(Cl)ccc2c1)C(=O)C1CCN(c2ccncc2)CC1` [Example 14, Methyl 2-[N-[3-(6-chloro-2-naphthyl)sulfonylpropyl]-N-[[1-(4-pyridyl)-4-piperidinyl]carbonyl]amino]acetate], for which the pIC50 was 7.22.
As to `CCOC(=O)CN(C(=O)CCS(=O)(=O)c1ccc2cc(Cl)ccc2c1)C1CCN(c2ccncc2)CC1` [Example 33, Ethyl 2-[N-[3-(6-chloro-2-naphthyl)sulfonylpropioyl]-N-[1-(4-pyridyl)-4-piperidyl]amino]acetate], the pIC50 was 7.26.
As for `CCOC(=O)CCN(C(=O)CCS(=O)(=O)c1ccc2cc(Cl)ccc2c1)C1CCN(c2ccncc2)CC1` [Example 34, Ethyl 3-[N-[3-(6-chloro-2-naphthyl)sulfonylpropioyl]-N-[1-(4-pyridyl)-4-piperidyl]amino]propionate], the pIC50 was 7.43.
As to `CC(=O)NCCN(C(=O)CCS(=O)(=O)c1ccc2cc(Cl)ccc2c1)C1CCN(c2ccnc(C)c2)CC1` [Example 52, N-(2-Acetylaminoethyl)-3-(6-chloro-2-naphthyl)sulfonyl-N-[1-(2-methyl-4-pyridyl)-4-piperidyl]propanamide], the pIC50 was 7.31.
Take `CC(=O)NCCN(C(=O)CCS(=O)(=O)c1ccc2cc(Cl)ccc2c1)C1CCN(c2ccncc2)CC1` [Example 54, N-(2-Acetylaminoethyl)-3-(6-chloro-2-naphthyl)sulfonyl-N-[1-(4-pyridyl)-4-piperidyl]propanamide]: the pIC50 was 7.41.
With `CS(=O)(=O)NCCN(C(=O)CCS(=O)(=O)c1ccc2cc(Cl)ccc2c1)C1CCN(c2ccncc2)CC1` [Example 55, 3-(6-Chloro-2-naphthyl)sulfonyl-N-(2-methylsulfonylaminoethyl)-N-[1-(4-pyridyl)-4-piperidyl]propanamide], the pIC50 was 7.40.
In the case of `CCOC(=O)CCN(C(=O)CCS(=O)(=O)c1ccc2cc(Cl)ccc2c1)C1CCN(c2ccnc(C)c2)CC1` [Example 67, Ethyl 3-[N-[3-(6-chloro-2-naphthyl)sulfonylpropanoyl]-N-[1-(2-methyl-4-pyridyl)-4-piperidyl]amino]propionate], the pIC50 is 7.60.
Turning to `Cc1cc(N2CCC(N(CCC(=O)N3CC[S+]([O-])CC3)C(=O)CCS(=O)(=O)c3ccc4cc(Cl)ccc4c3)CC2)ccn1` [Example 68, 3-(6-Chloro-2-naphthyl)sulfonyl-N-[1-(2-methyl-4-pydiryl)-4-piperidyl]-N-[3-oxy-3-(1-oxothiomorpholin-4-yl)propyl]propionamide], the pIC50 is 7.47.
Compound `CC(=O)N(C)CCN(C(=O)CCS(=O)(=O)c1ccc2cc(Cl)ccc2c1)C1CCN(c2ccnc(C)c2)CC1` [Example 75, N-[2-(N-Acetyl-N-methylamino)ethyl]-3-(6-chloro-2-naphthyl)sulfonyl-N-[1-(2-methyl-4-pyridyl)-4-piperidyl]propanamide] had a pIC50 of 7.23.
Compound `Cc1cc(N2CCC(N(C)C(=O)CCS(=O)(=O)c3ccc4cc(Cl)ccc4c3)CC2)cc(C)n1` [Example 118, 3-(6-Chloro-2-naphthyl)sulfonyl-N-[1-(2,6-dimethyl-4-pyridyl)-4-piperidyl]-N-propanamide] showed a pIC50 of 7.20.
For the compound `Cc1cc(N2CCC(N(Cc3ccccn3)C(=O)CCS(=O)(=O)c3ccc4cc(Cl)ccc4c3)CC2)ccn1` [Example 129, 3-(6-Chloro-2-naphthyl)sulfonyl-N-[1-(2-methyl-4-pyridyl)-4-piperidyl]-N-(2-pyridyl)methylpropanamide], the negative logarithm of the IC50 (pIC50) was 7.18.
The compound “N-(2-Aminoethyl)-3-(6-chloro-2-naphthyl)sulfonyl-N-[1-(2-methyl-4-pyridyl)-4-piperidyl]propanamide ditrifluoroacetate [Example 53]” had a pIC50 of 7.02.

As usually defined, the pIC50 is the negative decadic logarithm of the IC50, by convention in mol/L. Low readings indicate a high IC50, high ones a low IC50.
